Values of other authors as cited in PMC11215690 (Clinical and Translational Science, 2024).

Tested on: healthy participants
Conditions: studies of healthy participants

CN1C(=O)[C@@H](NC(=O)c2nnc(Cc3ccccc3)[nH]2)COc2ccccc21 [GSK2982772]
most frequently reported TEAEs: headache and skin reaction of contact dermatitis

O=C(c1nc2n(n1)[C@H](c1ccccc1)C[C@@H]2F)C1CC1 [GDC‐8264]
most frequently reported TEAEs: headache and skin reaction of contact dermatitis
